Measured values published in ChEMBL document CHEMBL3301458, “MMV Malaria Box hERG screening”.
Activity calls are given as the source filed them. How the calls were made is not given here.

Columns and labels:
[1] = molecular target: T1, hERG (Kv11.1, KCNH2) (Homo sapiens, UniProt Q12809); assay: in vitro
Description: MMV: Malaria Box compounds were tested for inhibition of the human ether a go-go related gene (hERG), Kv11.1 channel, using IonWorks 384-well patch clamp electrophysiology at 1.1uM (3 independent assay plates up to 12 cells per concentration).

[2] = molecular target: T1, hERG (Kv11.1, KCNH2); assay: in vitro; remark: listed apart in the source
Description: MMV: Malaria Box compounds were tested for inhibition of the human ether a go-go related gene (hERG), Kv11.1 channel, using IonWorks 384-well patch clamp electrophysiology at 11.1uM (3 independent assay plates up to 12 cells per concentration).

T1 sequence (Q12809 whole entry): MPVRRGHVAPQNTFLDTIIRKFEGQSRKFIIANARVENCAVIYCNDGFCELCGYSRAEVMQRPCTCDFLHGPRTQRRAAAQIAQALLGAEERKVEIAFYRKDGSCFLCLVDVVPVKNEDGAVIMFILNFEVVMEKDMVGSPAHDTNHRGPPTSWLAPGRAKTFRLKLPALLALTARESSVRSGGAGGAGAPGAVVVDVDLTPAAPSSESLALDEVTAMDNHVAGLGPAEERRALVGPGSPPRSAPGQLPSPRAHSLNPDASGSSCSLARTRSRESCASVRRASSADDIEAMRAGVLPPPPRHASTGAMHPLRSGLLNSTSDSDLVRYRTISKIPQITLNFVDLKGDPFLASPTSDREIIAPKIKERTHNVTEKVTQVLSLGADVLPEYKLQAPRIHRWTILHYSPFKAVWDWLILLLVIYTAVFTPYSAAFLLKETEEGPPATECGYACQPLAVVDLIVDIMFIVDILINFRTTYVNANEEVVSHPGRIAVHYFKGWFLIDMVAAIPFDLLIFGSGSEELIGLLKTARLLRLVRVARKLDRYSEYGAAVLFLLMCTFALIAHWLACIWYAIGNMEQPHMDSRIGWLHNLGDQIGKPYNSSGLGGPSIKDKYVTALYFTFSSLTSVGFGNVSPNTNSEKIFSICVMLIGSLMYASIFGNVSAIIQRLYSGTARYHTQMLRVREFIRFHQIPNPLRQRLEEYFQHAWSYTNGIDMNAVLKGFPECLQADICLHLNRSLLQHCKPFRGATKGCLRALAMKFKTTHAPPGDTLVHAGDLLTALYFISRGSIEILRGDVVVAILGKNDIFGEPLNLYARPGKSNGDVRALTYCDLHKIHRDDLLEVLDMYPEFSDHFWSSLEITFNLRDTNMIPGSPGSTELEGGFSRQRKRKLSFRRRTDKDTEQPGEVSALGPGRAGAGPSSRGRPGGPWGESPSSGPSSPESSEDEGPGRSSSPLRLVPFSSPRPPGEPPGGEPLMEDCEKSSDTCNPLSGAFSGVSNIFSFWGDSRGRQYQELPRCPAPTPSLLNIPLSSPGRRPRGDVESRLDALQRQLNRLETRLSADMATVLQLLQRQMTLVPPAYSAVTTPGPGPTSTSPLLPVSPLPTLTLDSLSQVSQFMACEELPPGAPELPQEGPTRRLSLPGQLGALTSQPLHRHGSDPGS

| Structure (SMILES) | inhibition at 1.1 µM [1] | inhibition at 11.1 µM [2] |
| --- | --- | --- |
| CN1CCN(c2ccc(Nc3c4ccccc4nc4ccccc34)cc2)CC1 | 24% | 75% (active) |
| CN(C)CCCNc1c2ccccc2nc2ccccc12 | 5% | 31% |
| CCN(CC)CCNc1ccnc2cc(Cl)ccc12 | 18% | 61% (active) |
| O=C(Nc1ccc(Br)cc1)Nc1cccc(Cl)c1 | -5% | 11% (inactive) |
| O=C(NCc1ccco1)C1CCN(S(=O)(=O)c2ccc(Cl)cc2)CC1 | 11% | 38% |
| Oc1ccc(-c2nc(-c3ccc4oc5ccc(-c6[nH]c(-c7ccc(O)cc7)nc6-c6ccccc6)cc5c4c3)c(-c3ccccc3)[nH]2)cc1 | 12% | 54% (active) |
| CCN(CC)CCn1c(=N)n(CC(O)c2ccc(Cl)c(Cl)c2)c2ccccc21 (stereo not given) | 36% | 86% (active) |
| Cc1ccnc(NC(c2cccc(OCc3ccccc3)c2)c2ccc3cccnc3c2O)c1 (stereo not given) | 6% | 24% (inactive) |
| COc1ccc(NC(=O)C2c3ccccc3C(=O)N(CC(C)C)C2c2cccs2)cc1Cl (stereo not given) | 0% | 24% (inactive) |
| OCCNc1nc(Nc2ccc(Cl)c(Cl)c2)nc2ccccc12 | 4% | 30% |
| CCOC(=O)c1cnc2ccc(OC)cc2c1Nc1ccc(N2CCN(C)CC2)cc1 | 15% | 15% (inactive) |
| CCOc1cc2c(cc1OCC)C(c1cc(Cl)ccc1O)NCC2 (stereo not given) | 1% | 20% (inactive) |
| CCOc1cc2c(cc1OCC)C(c1cc(C)c(O)c(C)c1)NCC2 (stereo not given) | 13% | 36% |
| O=C1CC(O)(C(F)(F)C(F)(F)F)Oc2ccccc21 (stereo not given) | -9% | 3% (inactive) |
| Cc1ccc(C2CC(C(F)(F)F)n3nc(C(=O)N4CCN(C(c5ccccc5)c5ccccc5)CC4)cc3N2)cc1 (stereo not given) | 5% | 8% (inactive) |
| Cc1ccc2nc(C)cc(Nc3cccc(C(F)(F)F)c3)c2c1 | 48% | 106% (active) |
| CCOc1cccc2sc(N(Cc3cccnc3)C(=O)C3CCCCC3)nc12 | 8% | 54% (active) |
| CC(C)c1ccc(CNCC(O)c2ccccc2)cc1 (stereo not given) | 15% | 59% (active) |
| CC1CC(C)CN(C(=O)c2ccc(Cl)cc2Cl)C1 (stereo not given) | -3% | 5% (inactive) |
| COc1ccccc1CNC(=O)C1c2ccccc2C(=O)N(CC(C)C)C1c1cccs1 (stereo not given) | -15% | 17% (inactive) |
| CCOc1cc2c(cc1OCC)C(c1cc(Cl)c(O)c(OCC)c1)NCC2 (stereo not given) | 1% | 57% (active) |
| OC(CNC1CCCC1)Cn1c2ccccc2c2ccccc21 (stereo not given) | 8% | 55% (active) |
| CCc1ccc(Nc2cc(C)c3ccc(O)cc3n2)cc1 | 15% | 78% (active) |
| CCN(CC)c1cc(C)c2cc(NC(=O)c3cccc(OC)c3)ccc2n1 | 85% | 103% |
| COc1ccc(C(O)(CCC(C)C)C(CN2CCOCC2)c2ccc(Cl)cc2)cc1 (stereo not given) | 4% | 109% (active) |
| CCCCCCn1c(=N)n(CC(O)COc2cccc(C)c2)c2ccccc21 (stereo not given) | 57% | 111% |
| Cc1ccc(NC(=O)Nc2cccc(Cl)c2)cc1F | -7% | -1% (inactive) |
| CC(C)OCc1cc(CN2CCN(c3cccc(Cl)c3)CC2)c(O)c2ncccc12 | 65% | 100% |

| Structure (SMILES) | inhibition at 1.1 µM [1] | inhibition at 11.1 µM [2] |
| --- | --- | --- |
| Oc1ccc(Br)cc1CN1CCN(Cc2cccc(F)c2)CC1 | -1% | 18% (inactive) |
| COc1ccc(-c2cc(=O)oc3c4c(ccc23)OCN(Cc2ccc(F)cc2)C4)cc1 | 24% | 16% (inactive) |
| CSc1ccccc1C(=O)Nc1nc(-c2ccccn2)cs1 | 15% | 39% |
| CC(O)(c1ccc(Cl)cc1)C(CN1CCCCC1)c1ccccc1 (stereo not given) | 40% | 84% (active) |
| CCCCc1ccc(NS(=O)(=O)c2cc3c4c(c2)CCN4C(=O)CC3)cc1 | 2% | 26% |
| CCn1c2c(c(=N)c3c1CCC3)CCCC2 | 48% | 104% (active) |
| CCCOCc1cc(CN2CCN(c3cccc(Cl)c3)CC2)c(O)c2ncccc12 | 3% | 106% (active) |
| CCOc1ccc2c(c1)CN(Cc1ccc(Cl)cc1)CO2 | 33% | 99% (active) |
| CCOc1ccccc1CNC(=O)C1c2ccccc2C(=O)N(CC(C)C)C1c1cccs1 (stereo not given) | 12% | 84% (active) |
| CC(C)(C)c1ccc2c(c1)CN(Cc1ccc(Cl)cc1)CO2 | 25% | 12% (inactive) |
| CCCCC(O)(c1ccc(Cl)cc1)C(CN1CCOCC1)c1ccc(Cl)cc1 (stereo not given) | 18% | 35% |
| c1ccc(CNc2nc(Nc3ccccc3)nc3ccccc23)cc1 | 17% | 69% (active) |
| COc1ccc(Nc2nc(NCc3ccccc3)c3ccccc3n2)cc1 | 0% | 53% (active) |
| COc1ccc2c(c1OC)C(=O)N1c3ccccc3N=C(c3ccc(C)cc3)CC21 (stereo not given) | 25% | 10% (inactive) |
| Oc1c(CN2CCN(c3ccccc3F)CC2)cc(Br)c2cccnc12 | -9% | 46% |
| OC(CNCc1ccccc1)Cn1c2ccccc2c2ccccc21 (stereo not given) | 41% | 94% (active) |
| CCOc1ccc(Nc2c3ccccc3nc3ccccc23)cc1 | 68% | 112% |
| COc1ccc(C)c2sc(N(Cc3cccnc3)C(=O)c3ccc(C#N)cc3)nc12 | 1% | 69% (active) |
| COc1ccc(C2Sc3ccccc3N=C3C2=C(O)c2ccccc23)cc1 (stereo not given) | -2% | 26% |
| CCCCCCC(O)(c1ccc(F)cc1)C(CN1CCOCC1)c1ccccc1 (stereo not given) | 0% | 71% (active) |
| CCCN(CCC)CCCNC(=O)c1cc2c(-c3ccc(OC)c(OC)c3)nn(C)c2s1 | 6% | 47% |
| CCCCCn1c(=N)n(CC(O)COc2cccc(C)c2)c2ccccc21 (stereo not given) | 59% | 101% |
| Cc1ccc(Nc2nc(NCCO)c3ccccc3n2)cc1C | > 12% | 81% (active) |
| COc1ccc2sc(N(Cc3cccnc3)C(=O)c3ccc(C#N)cc3)nc2c1 | 14% | 82% (active) |
| CC1CCCCN1CCCNC(=O)c1ccc2c(c1)sc1nc(-c3ccc(F)cc3)cn12 (stereo not given) | 64% | 81% |
| COc1ccc(NC(=O)C2c3ccccc3C(=O)N(CC(C)C)C2c2cccs2)cc1 (stereo not given) | 7% | 18% (inactive) |
| CN1CCN(c2nc(Nc3ccc(O)cc3)nc3ccccc23)CC1 | 31% | 31% |
